In patent publication US11976083B2, “Inhibitors of peptidylarginine deiminases” (Gilead Sciences, Inc., priority 2020, dated 2024):

What follows are molecules tested against T1, human PAD4 (Homo sapiens, UniProt Q9UM07) (assay: In vitro PAD4 BAEE biochemical assay). Conditions: BAEE substrate 3 mM, 5 nM PAD4, 2 mM calcium chloride; geometric mean of multiple experiments.
T1 construct: human PAD4 (NM_012387), A2-P663, was PCR amplified; His-SUMO (N, cleaved yes); made in house; host or cells: E. coli BL21(DE3)
In short: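 Fluorescence read-out (ex 405/em 535 nm) of isoindole formed from ammonia, o-phthalaldehyde and DTT after EDTA stop. Reaction: 5 nM PAD4, 2 mM CaCl2, 3 mM BAEE, 2 h, 25 °C, after 30 min enzyme–compound preincubation. Normalised to BB-Cl-Amidine (50 µM) and DMSO controls.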

T1 sequence (Q9UM07 2-663): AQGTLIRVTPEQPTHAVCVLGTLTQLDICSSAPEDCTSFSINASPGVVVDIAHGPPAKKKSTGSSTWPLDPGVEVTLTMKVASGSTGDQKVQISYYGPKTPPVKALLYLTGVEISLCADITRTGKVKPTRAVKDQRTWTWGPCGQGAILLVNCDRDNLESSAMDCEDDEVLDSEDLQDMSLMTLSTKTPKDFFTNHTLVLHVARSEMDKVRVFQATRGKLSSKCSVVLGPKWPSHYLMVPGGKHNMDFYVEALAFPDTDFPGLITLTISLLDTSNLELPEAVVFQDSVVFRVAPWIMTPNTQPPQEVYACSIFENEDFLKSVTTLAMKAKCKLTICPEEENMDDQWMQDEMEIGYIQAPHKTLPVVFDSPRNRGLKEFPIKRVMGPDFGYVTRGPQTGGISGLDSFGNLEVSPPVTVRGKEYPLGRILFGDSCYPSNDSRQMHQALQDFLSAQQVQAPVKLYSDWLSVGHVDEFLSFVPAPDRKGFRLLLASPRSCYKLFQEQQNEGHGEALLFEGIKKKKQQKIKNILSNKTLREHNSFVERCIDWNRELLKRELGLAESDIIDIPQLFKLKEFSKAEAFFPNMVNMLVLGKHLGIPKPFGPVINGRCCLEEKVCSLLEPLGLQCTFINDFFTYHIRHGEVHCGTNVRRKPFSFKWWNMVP

| IC50 [nM] | Structure (SMILES) |
| --- | --- |
| 23 | COc1cc(C(=O)N2C[C@H](N)[C@@H]3CC[C@H]2C3)cc2nc(-c3cc4ccc5cc4n3CCCCCCC(C)(C)C(=O)N[C@@H]5C)n(C)c12 [Example 465, (11~{R})-17-[5-[(1~{S},4~{R},5~{R})-4-amino-2-azabicyclo[3.2.1]octane-2-carbonyl]-7-methoxy-1-methyl-benzimidazol-2-yl]-8,8,11-trimethyl-1,10-diazatricyclo[10.5.2.0^{15,18}]nonadeca-12(19),13,15(18),16-tetraen-9-one] |
| 3320 | COc1cc(C(=O)N2CC[C@@H]3OCCN[C@@H]3C2)cc2nc(-c3cc4ccc5nc4n3C[C@H]3C[C@H]3COCCC(=O)N[C@@H]5C)n(C)c12 (single isomer, unassigned) [Example 246, (3˜{S},5˜{R},12˜{R})-18-[5-[(4˜{a}˜{R},8˜{a}˜{S})-2,3,4,4˜{a},5,7,8,8˜{a}-octahydropyrido[4,3-b][1,4]oxazine-6-carbonyl]-7-methoxy-1-methyl-benzimidazol-2-yl]-12-methyl-7-oxa-1,11,20-triazatetracyclo[11.5.2.0^{3,5}.0^{16,19}]icosa-13(20),14,16(19),17-tetraen-10-one] |
| 3130 | COc1cc(C(=O)N2[C@H]3CC[C@@H]2[C@H](N)C3)cc2nc(-c3cc4ccc5nc4n3CCCCCCNc3ncccc3-5)n(C)c12 [Example 96, [(1˜{R},2˜{R},4˜{S})-2-amino-7-azabicyclo[2.2.1]heptan-7-yl]-[7-methoxy-1-methyl-2-(6,8,15,21-tetrazatetracyclo[13.5.2.0^{2,7}.0^{18,22}]docosa-1(21),2,4,6,16,18(22),19-heptaen-16-yl)benzimidazol-5-yl]methanone] |
| 44 | COC(C)Cn1c(-c2cc3ccc4nc3n2CCCCC[C@@H]2C[C@H]2C(=O)N[C@@H]4C)nc2cc(C(=O)N[C@H]3CNCC[C@@H]3F)c(F)cc21 (stereo partly drawn) [Example 430, 6-fluoro-~{N}-[(3~{S},4~{S})-4-fluoro-3-piperidyl]-1-(2-methoxypropyl)-2-[(2~{R},5~{R},7~{R})-2-methyl-4-oxo-3,13,19-triazatetracyclo[11.5.2.0^{5,7}.0^{16,20}]icosa-1(19),14,16(20),17-tetraen-14-yl]benzimidazole-5-carboxamide] |
| 38 | COc1cc(C(=O)N2C[C@H](N)[C@@H]3CC[C@H]2C3)cc2nc(-c3cc4ccc5nc4n3CC(F)(F)CCCc3cncc(F)c3C(=O)N[C@@H]5C)n(C)c12 [Example 446, (2~{R})-17-[5-[(1~{S},4~{R},5~{R})-4-amino-2-azabicyclo[3.2.1]octane-2-carbonyl]-7-methoxy-1-methyl-benzimidazol-2-yl]-6,14,14-trifluoro-2-methyl-3,8,16,22-tetrazatetracyclo[14.5.2.0^{5,10}.0^{19,23}] tricosa-1(22),5(10),6,8,17,19(23),20-heptaen-4-one] |
| 21 | COc1cc(C(=O)N2CC[C@@H](OC)[C@@H](N)C2)cc2nc(-c3cc4ccc5nc4n3CC(F)(F)CCC[C@]3(F)C[C@H]3C(=O)N[C@@H]5C)n(C)c12 [Example 702, (2~{R},5~{S},7~{S})-14-[5-[(3~{S},4~{R})-3-amino-4-methoxy-piperidine-1-carbonyl]-7-methoxy-1-methyl-benzimidazol-2-yl]-7,11,11-trifluoro-2-methyl-3,13,19-triazatetracyclo[11.5.2.0^ {5,7}.0^{16,20}]icosa-1(19),14,16(20),17-tetraen-4-one] |
| 103 | COc1cc(C(=O)N2C[C@H](N)[C@@H]3CC[C@H]2C3)cc2nc(-c3cc4ccc5nc4n3CCCCCc3nc(C(F)(F)F)ncc3C(=O)N[C@@H]5C)n(C3CC3)c12 [Example 934, (2~{R})-17-[5-[(1~{S),4~{R},5~ {R})-4-amino-2-azabicyclo [3.2.1]octane-2-carbonyl]-1-cyclopropyl-7-methoxy-benzimidazol-2-yl]-2-methyl-8-(trifluoromethyl)-3,7,9,16,22-pentazatetracyclo[14.5.2.0^ {5,10}.0^{19,23}]tricosa-1(21),5(10),6,8,17,19,22-heptaen-4-one] |
| 31 | CO[C@@H]1CCN(C(=O)c2cc(F)c3c(c2)nc(-c2cc4ccc5nc4n2CCCCCCC(c2ccccn2)C(=O)N[C@@H]5C)n3C2CC2)C[C@@H]1N (stereo partly drawn) [Example 871, (11~{R})-17-[5-[(3~{S), 4~{R})-3-amino-4-methoxy-piperidine-1-carbonyl]-1-cyclopropyl-7-fluoro-benzimidazol-2-yl]-11-methyl-8-(2-pyridyl)-1,10,19-triazatricyclo[10.5.2.0^{15,18}] nonadeca-12(19), 13,15(18),16-tetraen-9-one] |
| 72 | COc1cc(C(=O)N2C[C@H](N)[C@@H]3CC[C@H]2C3)cc2nc(-c3cc4ccc5nc4n3CCCCCOC(C)(C)C(=O)N[C@@H]5C)n(C3CC3)c12 [Example 905, (11~{R})-17-[5-[(1~{S},4~{R}, 5~{R})-4-amino-2-azabicyclo [3.2.1]octane-2-carbonyl]-1-cyclopropyl-7-methoxy-benzimidazol-2-yl]-8,8,11-trimethyl-7-oxa-1,10,19-triazatricyclo[10.5.2.0^{15,18}] nonadeca-12(19), 13,15(18),16-tetraen-9-one] |
| 67 | COc1cc(C(=O)N2C[C@H]3CC[C@@H]2[C@@H]3N)cc2nc(-c3cc4ccc5nc4n3CCCCCCCC(=O)N[C@@H]5C)c(C)n12 [Example 302, (11~{R})-17-[7-[(1~{R},4~{R},7~{R})-7-amino-2-azabicyclo[2.2.1]heptane-2-carbonyl]-5-methoxy-3-methyl-imidazo[1,2-a]pyridin-2-yl]-11-methyl-1,10,19-triazatricyclo[10.5.2.0^{15,18}]nonadeca-12(19),13,15(18),16-tetraen-9-one] |
| 29 | C[C@H]1NC(=O)c2ccncc2CCCCCn2c(-c3nc4cc(C(=O)N[C@H]5CNCC[C@@H]5F)c(F)cc4n3C3CC3)cc3ccc1nc32 [Example 353, 1-cyclopropyl-6-fluoro-~{N}-[(3~{S},4~{S})-4-fluoro-3-piperidyl]-2-[(2~{R})-2-methyl-4-oxo-3,8,16,22-tetrazatetracyclo[14.5.2.0^{5,10}.0^{19,23}]tricosa-1(22),5,7,9,17,19(23),20-heptaen-17-yl]benzimidazole-5-carboxamide] |
| 31 | C[C@H]1NC(=O)c2cnc(Cl)cc2CCCCCn2c(-c3nc4cc(C(=O)N[C@H]5CNCC[C@@H]5F)c(F)cc4n3C3CC3)cc3ccc1nc32 [Example 357, 2-[(2~{R})-8-chloro-2-methyl-4-oxo-3,7,16,22-tetrazatetracyclo[14.5.2.0^{5,10}.0^{19,23}]tricosa-1(22),5,7,9,17,19(23),20-heptaen-17-yl]-1-cyclopropyl-6-fluoro-~ {N}-[(3~{S},4~{S})-4-fluoro-3-piperidyl]benzimidazole-5-carboxamide] |
| 1200 | COc1cc(C(=O)N2[C@H]3CC[C@@H]2[C@H](N)C3)cc2nc(-c3cc4ccc5nc4n3CCCCc3cccc(c3F)C(=O)N[C@@H]5C)n(C)c12 [Example 38, (2~{R})-15-[5-[(1~{R},2~{R},4~{S})-2-amino-7-azabicyclo[2.2.1]heptane-7-carbonyl]-7-methoxy-1-methyl-benzimidazol-2-yl]-22-fluoro-2-methyl-3,14,20-triazatetracyclo[12.5.2.1^{5,9}.0^{17,21}] docosa-1(20),5,7,9(22),15,17(21),18-heptaen-4-one] |
| 24 | COc1cc(C(=O)N2C[C@H](N)[C@@H]3CC[C@H]2C3)cc2nc(-c3cc4ccc5nc4n3CCCCCC[C@@](F)(c3ccccn3)C(=O)N[C@@H]5C)n(C)c12 [Example 884, (8~{R},11~{R})-17-[5-[(1~{S),4~{R},5~{R})-4-amino-2-azabicyclo[3.2.1]octane-2-carbonyl]-7-methoxy-1-methyl-benzimidazol-2-yl]-8-fluoro-11-methyl-8-(2-pyridyl)-1,10,19-triazatricyclo[10.5.2.0^ {15,18}]nonadeca-12(19), 13,15(18),16-tetraen-9-one] |
| 45 | COc1cc(C(=O)N2CCC[C@@H](N)C2)cc2nc(-c3cc4ccc5cc4n3CCCCCCC(C)(C)C(=O)N[C@@H]5C)n(C)c12 [Example 148, (11~{R})-17-[5-[(3~{R})-3-aminopiperidine-1-carbonyl]-7-methoxy-1-methyl-benzimidazol-2-yl]-8,8,11-trimethyl-1,10-diazatricyclo [10.5.2.0^{15,18}]nonadeca-12(19),13,15(18),16-tetraen-9-one] |
| 65 | COc1cc(C(=O)N2CC[C@@H](OC)[C@@H](N)C2)cc2nc(-c3cc4ccc5nc4n3CCCCCc3nccnc3C(=O)N(C)[C@@H]5C)n(C)c12 [Example 855, (2~{R})-17-[5-[(3~{S},4~{R})-3-amino-4-methoxy-piperidine-1-carbonyl]-7-methoxy-1-methyl-benzimidazol-2-yl]-2,3-dimethyl-3,6,9,16,22-pentazatetracyclo[14.5.2.0^ {5,10}.0^1923]tricosa-1(22),, 5(10),6,8,17,19(23),20-heptaen-4-one] |
| 80 | COCCn1c(-c2cc3ccc4nc3n2CCCCCCC(C)(C)C(=O)N[C@@H]4C)nc2cc(C(=O)N[C@H]3CNCC[C@@H]3F)c(F)c(F)c21 [Example 558, 6,7-difluoro-~{N}-[(3~{S},4~{S})-4-fluoro-3-piperidyl]-1-(2-methoxyethyl)-2-[(11~{R})-8,8,11-trimethyl-9-oxo-1,10,19-triazatricyclo [10.5.2.0^{15,18}]nonadeca-12(19),13,15(18),16-tetraen-17-yl]benzimidazole-5-carboxamide] |
| 38 | C[C@H]1NC(=O)c2ccncc2CCCCCn2c(-c3nc4cc(C(=O)N[C@H]5CNCC[C@@H]5F)c(F)cc4n3C)cc3ccc1nc32 [Example 350, 6-fluoro-~{N}-[(3~{S},4~{S})-4-fluoro-3-piperidyl]-1-methyl-2-[(2~{R})-2-methyl-4-oxo-3,8,16,22-tetrazatetracyclo[14.5.2.0^{5,10}.0^{19,23}]tricosa-1(22),5,7,9,17,19(23),20-heptaen-17-yl]benzimidazole-5-carboxamide] |
